≈ marks a conversion by molar mass, not a printed value. Where “and” joins values, the source holds several entries; their conditions need not be identical. Identical values can stand only once. Like-named read-outs stand apart in the source and are kept apart here.
Experiments:
[1] = Apparent distribution coefficient, 1-octanol/water, isothermal shake-flask; format: physicochemical; conditions: 298.15 K
Experimental: (§1) The well-known isothermal shake-flask method was applied for the determination of the apparent distribution coefficients in the 1-octanol/water ( Dappoct/w ) and n-hexane/water ( Dapphex/w ) systems. The mutually saturated solvents were prepared by mixing water and organic phases for 24 h and settling and separating from each other. The stock solutions of the drug were made from 1-octanol saturated with water for the 1-octanol/water distribution, and n-hexane saturated with water for the n-hexane/water system. An aliquot of the stock solution was placed in a glass vial together with an aliquot of the respective phase and mixed for 24 h at five temperatures, from 293.15 to 313.15 K (±0.1 K). The concentrations of the compounds were determined spectrophotometrically (Shimadzu 1800, Kyoto, Japan) in a UV region, with an accuracy of 2–4%. The reported experimental values represent the average of at least four replicate experiments.
(§2) The apparent distribution coefficients were calculated from the molar concentrations of the substance in the phases using the following equation:(10) DCorg/w=C2org/w/C2w/org where DCorg/w is the apparent distribution coefficient, C2org/w and C2w/org are the concentrations (M) of the compound after the distribution in the 1-octanol or n-hexane and water phases, respectively. The apparent distribution coefficients in the mole fraction scale ( DXorg/w ) were calculated by the equation:(11) DXorg/w=X2org/w/X2w/org where X2org/w and X2w/org are the concentrations (mole fract.) of the compound after distribution. The standard Gibbs energy of the transfer ( ΔGtr0) from water to the organic phase was calculated as follows:(12) ΔGtr0=−RT(lnDXorg/w)

[2] = Apparent distribution coefficient, n-hexane/water, isothermal shake-flask; format: physicochemical; conditions: 298.15 K
Experimental: as §1, §2

[3] = Equilibrium solubility, shake-flask method; format: physicochemical; conditions: for solubility at 24 h: thermodynamic from solid, read-out: Solubility S2 × 10^6
Experimental: The standard shake-flask method was applied to determine solubility. The saturated solutions of the studied compound were obtained in glass screw-capped vials with the respective solvent, which were vigorously stirred in an air thermostat. The volumes of water, 1-octanol, n-hexane, and ethanol equaled 7, 2, 7, and 2 mL, respectively. […] After this time period, the saturated solutions stayed in the thermostat during the night, and then the non-dissolved substance was separated from the solution via centrifugation (Biofuge pico, Thermo Electron LED GmbH, Langenselbold, Germany) at the respective temperature for 20 min at 10,000 rpm. […] The experimental results were reported as an average of at least three replicated experiments with an accuracy of 2–4%.
The dissolution thermodynamic parameters on the standard state were determined using mole fraction unitary units. Recalculation of the molar solubility to the mole fraction was made as follows:(1) X2=M1S2/S2(M1−M2)+1000ρ, where S2 is the molar solubility of solute (M), M1 and M2 are the molar masses of solvent and solute, respectively, and ρ (g∙cm^−3) is the density of pure solvents. […] The density values of the pure solvents were used in calculations (Table S1).

[4] = Hypothetical transfer thermodynamic functions from solvation functions; format: physicochemical; conditions: water → n-hexane
[5] = Transfer thermodynamic functions from distribution experiments (real transfer); format: physicochemical; conditions: 298.15 K
Experimental: as §2
The transfer enthalpy ( ΔHtr0) was derived from the temperature dependences of the distribution coefficients by the van’t Hoff approach as:(13) ∂(lnDXorg/w)/∂T=ΔHtr0/RT^2
The standard transfer entropy ( ΔStr0 ) was determined by the equation:(14) ΔGtr0=ΔHtr0−TΔStr0
As follows, additional information on the thermodynamic functions of this parameter (enthalpies and entropies) was obtained from the temperature dependences in order to disclose the transfer (n-hexane → 1-octanol) thermodynamic mechanisms. To this end, the ∆ln DX values (expressed in mole fraction units) characterizing the transfer (n-hexane → 1-octanol) were calculated as ∆ln DX = ln DXoct/w − ln DXhex/w and the respective thermodynamic functions were determined using Equations (12)–(14). The resulting temperature dependences and the contributions of the enthalpy and entropy terms to the free Gibbs energy of the hypothetical and “real” transfers are shown in Figure 5 and Table 6. […] At the same time, the thermodynamic mechanism of the (n-hexane → 1-octanol) transfer differs from the (water → organic solvents) transitions. In particular, the (n-hexane → 1-octanol) transfer process is enthalpy determined (| ΔHtr0 | > | TΔStr0 |) similar to the (water → 1-octanol) one. Nevertheless, TΔStr0 < 0 testifies to the ordering of the system as opposed to water → 1-octanol and water → n-hexane ( TΔStr0 > 0). It can be concluded that the mechanism of the (n-hexane → 1-octanol) transfer is absolutely different from the (water → n-hexane) and partially agrees with the (water → 1-octanol) transition. Importantly, the regularities estimated from the transferring diagram analysis match the results obtained using the Hansen parameters ( Δδt ^water > Δδt ^n-hexane > Δδt ^1-octanol).

[6] = cited from earlier work
[7] = n-hexane → 1-octanol, from Δ lnDX
[8] = water → 1-octanol, real transfer
[9] = water → n-hexane, real transfer

## CC(O)(CS(=O)(=O)c1ccc(F)cc1)C(=O)Nc1ccc(C#N)c(C(F)(F)F)c1 (stereo not drawn) [BCL, bicalutamide]
[1]; 1-octanol/water
  experimental over calculated distribution coefficient: 3.3 fold
[1]; 1-octanol/water, read-out: logDCoct/w, experimental
  logP at 24 h: 2.82 ± 0.09
[1]; 1-octanol/water, molarity scale
  DCoct/w, experimental apparent distribution coefficient: 662.29 ± 20.22
[1]; from calculated distribution coefficients
  ∆logDcalc: 2.30
[1]; logDCoct/w − logDChex/w, experimental
  ∆logD: 2.55
[1]; ratio of molar solubilities in 1-octanol and water
  DC/calcoct/w, calculated distribution coefficient: 199.02 ± 12.00
[2]; n-hexane/water
  experimental over calculated distribution coefficient: 1.9 fold
[2]; n-hexane/water, molarity scale
  DChex/w, experimental apparent distribution coefficient: 1.88 ± 0.04
[2]; ratio of molar solubilities in n-hexane and water
  DC/calchex/w, calculated distribution coefficient: 1.00
[3]; 1-octanol, 293.15 K
  Solubility X2 × 10^4: 2.23 mole fract.
[3]; 1-octanol, 298.15 K
  Solubility X2: 2.57 × 10^−4 mole fract.
  Solubility X2 × 10^4: 2.57 mole fract.
[3]; 1-octanol, 303.15 K
  Solubility X2 × 10^4: 3.00 mole fract.
[3]; 1-octanol, 308.15 K
  Solubility X2 × 10^4: 3.40 mole fract.
[3]; 1-octanol, 313.15 K
  Solubility X2 × 10^4: 3.95 mole fract.
[3]; ethanol, 293.15 K
  Solubility X2 × 10^3: 1.15 mole fract.
[3]; ethanol, 298.15 K
  Solubility X2: 1.42 × 10^−3 mole fract.
  Solubility X2 × 10^3: 1.42 mole fract.
  X2 298.15: 1.42 × 10^−3
[3]; ethanol, 303.15 K
  Solubility X2 × 10^3: 1.74 mole fract.
[3]; ethanol, 308.15 K
  Solubility X2 × 10^3: 2.11 mole fract.
[3]; ethanol, 313.15 K
  Solubility X2 × 10^3: 2.43 mole fract.
[3]; mole fraction, 298.15 K
  solubility in ethanol as compared to 1-octanol: 5.5 fold
[3]; n-hexane, 293.15 K
  Solubility X2 × 10^6: 0.74 mole fract.
[3]; n-hexane, 298.15 K
  Solubility X2: 1.07 × 10^−6 mole fract.
  Solubility X2 × 10^6: 1.07 mole fract.
  X2 298.15: 1.07 × 10^−6
[3]; n-hexane, 303.15 K
  Solubility X2 × 10^6: 1.50 mole fract.
[3]; n-hexane, 308.15 K
  Solubility X2 × 10^6: 2.04 mole fract.
[3]; n-hexane, 313.15 K
  Solubility X2 × 10^6: 2.76 mole fract.
[3]; n-hexane, 318.15 K
  Solubility X2 × 10^6: 3.63 mole fract.
[3]; n-hexane, organic solvent or mixture, n-hexane, 293.15 K
  solubility at 24 h: 5.67 µM (≈ 2.44 µg/mL)
[3]; n-hexane, organic solvent or mixture, n-hexane, 298.15 K
  solubility at 24 h: 8.12 µM (≈ 3.49 µg/mL)
[3]; n-hexane, organic solvent or mixture, n-hexane, 303.15 K
  solubility at 24 h: 11.3 µM (≈ 4.88 µg/mL)
[3]; n-hexane, organic solvent or mixture, n-hexane, 308.15 K
  solubility at 24 h: 15.3 µM (≈ 6.59 µg/mL)
[3]; n-hexane, organic solvent or mixture, n-hexane, 313.15 K
  solubility at 24 h: 20.5 µM (≈ 8.83 µg/mL)
[3]; n-hexane, organic solvent or mixture, n-hexane, 318.15 K
  solubility at 24 h: 26.8 µM (≈ 11.5 µg/mL)
[3]; water, 293.15 K
  Solubility X2 × 10^7: 1.12 mole fract.
[3]; water, 298.15 K
  Solubility X2: 1.47 × 10^−7 mole fract.
  Solubility X2 × 10^7: 1.47 mole fract.
  X2 298.15: 1.47 × 10^−7
[3]; water, 303.15 K
  Solubility X2 × 10^7: 1.90 mole fract.
[3]; water, 308.15 K
  Solubility X2 × 10^7: 2.35 mole fract.
[3]; water, 313.15 K
  Solubility X2 × 10^7: 2.97 mole fract.
[3]; water, water, 293.15 K
  solubility at 24 h: 6.24 µM (≈ 2.69 µg/mL)
[3]; water, water, 298.15 K
  solubility at 24 h: 8.14 µM (≈ 3.5 µg/mL)
[3]; water, water, 303.15 K
  solubility at 24 h: 10.5 µM (≈ 4.53 µg/mL)
[3]; water, water, 308.15 K
  solubility at 24 h: 12.9 µM (≈ 5.57 µg/mL)
[3]; water, water, 313.15 K
  solubility at 24 h: 16.4 µM (≈ 7.05 µg/mL)
[4]
  ΔGtr: −4.8 kJ⋅mol^−1
[5]; 1-octanol/n-hexane (n-hexane → 1-octanol), mole fraction scale
  DXorg/w (Δ lnDX parameter line): 425.33
[5]; [7]
  TΔStr0: -17.5 kJ/mol
  ΔGtr0: -15.0 ± 0.4 kJ/mol
  ΔHtr0: -32.5 ± 1.6 kJ/mol
  ΔStr0: −58.7 ± 4.1 J⋅mol^−1⋅K^−1
[5]; [8]
  TΔStr0: 6.5 kJ/mol
  ΔGtr0: -21.5 kJ/mol and -21.5 ± 0.4 kJ/mol
  ΔHtr0: -15.0 ± 0.2 kJ/mol
  ΔStr0: 21.8 ± 0.7 J⋅mol^−1⋅K^−1
[5]; [9]
  TΔStr0: 24.1 kJ/mol
  ΔGtr0: -6.5 kJ/mol and -6.5 ± 0.2 kJ/mol
  ΔHtr0: 17.6 ± 1.8 kJ/mol
  ΔStr0: 80.8 ± 9.9 J⋅mol^−1⋅K^−1
[6]; aqueous
  solubility: less than 5 mg∙L^−1
[6]; ref 10
  aqueous solubility: approximately 3.7 μg·mL^−1
[6]; ref 11
  aqueous solubility: 8.85 mg/L (≈ 20.6 µM)
